Laboratory results taken from patent US20030060472A1, “Novel substituted nitrocatechols, their use in the treatment of some central and peripheral nervous system disorders and pharmaceutical compositions containing them” (priority 2001, published 2003).

Tests used:
Brain COMT = assay: Ex vivo COMT activity in mice brain homogenates after administration by gastric tube; conditions: for Brain COMT (% of control) 1 h / Brain COMT (% of control) 6 h: mice brain homogenates, means ± S.E.M. of 4-8; for Brain COMT (% of control) 1 h: 1 h after administration by gastric tube; for Brain COMT (% of control) 6 h: 6 h after administration by gastric tube; for Duration of COMT inhibition and activity in the brain: conclusion from the mice study
Liver COMT = assay: Ex vivo COMT activity in mice liver homogenates after administration by gastric tube; conditions: for Potency upon liver COMT compared with brain COMT: mice, after oral administration; for Liver COMT (% of control) 1 h / Liver COMT (% of control) 6 h: mice liver homogenates, means ± S.E.M. of 4-8; for Liver COMT (% of control) 1 h: 1 h after administration by gastric tube; for Liver COMT (% of control) 6 h: 6 h after administration by gastric tube
COMT = biological target: T1, COMT (Homo sapiens, UniProt P21964); assay: COMT activity (O-methylation of adrenaline to metanephrine) in intact SK-N-SH cells; assay type: cell-based; conditions: test compound 100 nM, means ± SEM, n = 4-8
T1 construct: O-methylationof adrenaline in intact SK-N-SH cells; host or cells: SK-N-SH cells
T1 sequence (P21964 1-271): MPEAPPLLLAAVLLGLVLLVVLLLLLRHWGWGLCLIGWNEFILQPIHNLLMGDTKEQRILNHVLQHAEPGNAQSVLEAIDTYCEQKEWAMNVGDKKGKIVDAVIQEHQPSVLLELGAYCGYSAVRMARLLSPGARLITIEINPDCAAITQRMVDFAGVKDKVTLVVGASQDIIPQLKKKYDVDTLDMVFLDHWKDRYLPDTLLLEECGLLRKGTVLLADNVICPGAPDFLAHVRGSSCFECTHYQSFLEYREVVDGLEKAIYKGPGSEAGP

Structure (SMILES) | Brain COMT (% of control) 1 h (Brain COMT) | Brain COMT (% of control) 6 h (Brain COMT) | Duration of COMT inhibition and activity in the brain (Brain COMT) | Potency upon liver COMT compared with brain COMT (Liver COMT) | other results
Cl.O=C(CN1CCCCCC1)c1cc(O)c(O)c([N+](=O)[O-])c1 [Compound 1, 2-Azepan-1-yl-1-(3,4-dihydroxy-5-nitro-phenyl)-ethanone hydrochloride] | 45.0 ± 15.0 % of control | 102.0 ± 19.0 % of control |  |  | 
Cl.O=C(CCN1CCCCC1)c1cc(O)c(O)c([N+](=O)[O-])c1 [Compound 2, 1-(3,4-Dihydroxy-5-nitro-phenyl)-3-piperidin-1-yl-propan-1-one hydrochloride] |  |  | long acting COMT inhibitor with limited activity in the brain | much more potent upon liver COMT than brain COMT | 
Cl.O=C(CC(c1ccccc1)N1CCCCC1)c1cc(O)c(O)c([N+](=O)[O-])c1 (stereo not shown) [Compound 3, 1-(3,4-Dihydroxy-5-nitro-phenyl)-3-phenyl-3-piperidin-1-yl-propan-1-one hydrochloride] |  |  | long acting COMT inhibitor with limited activity in the brain | much more potent upon liver COMT than brain COMT | 
Cl.O=C(CC(c1ccccc1)N1CCOCC1)c1cc(O)c(O)c([N+](=O)[O-])c1 (stereo not shown) [Compound 5, 1-(3,4-Dihydroxy-5-nitro-phenyl)-3-morpholin-4-yl-3-phenyl-propan-1-one hydrochloride] |  |  |  | equally potent in inhibiting liver and brain COMT activity | 
CC1CCCCN1CC(=O)c1cc(O)c(O)c([N+](=O)[O-])c1.Cl (stereo not shown) [Compound 6, 1-(3,4-Dihydroxy-5-nitro-phenyl)-2-(2-methyl-piperidin-1-yl)-ethanone hydrochloride] | 37.0 ± 3.3 % of control | 66.0 ± 2.6 % of control |  |  | 
CCN(CC)C(C)C(=O)c1cc(O)c(O)c([N+](=O)[O-])c1.Cl (stereo not shown) [Compound 7, 2-Diethylamino-1-(3,4-dihydroxy-5-nitro-phenyl)-propan-1-one hydrochloride] | 74.0 ± 12.0 % of control | 126.0 ± 8.0 % of control |  |  | COMT activity (% of control) (COMT): 9.0 ± 0.2 % of control; Liver COMT (% of control) 1 h (Liver COMT): 38.4 ± 2.8 % of control; Liver COMT (% of control) 6 h (Liver COMT): 57.1 ± 4.9 % of control
O=C(COc1ccc2ccccc2c1)c1cc(O)c(O)c([N+](=O)[O-])c1 [Compound 10, 1-(3,4-Dihydroxy-5-nitro-phenyl)-2-(naphthalen-2-yloxy)-ethanone] |  |  | long acting COMT inhibitor with limited activity in the brain | much more potent upon liver COMT than brain COMT | 
CC1CN(CC(=O)c2cc(O)c(O)c([N+](=O)[O-])c2)CC(C)O1.Cl (stereo not shown) [Compound 11, 1-(3,4-Dihydroxy-5-nitro-phenyl)-2-(2,6-dimethyl-morpholin-4-yl)-ethanone hydrochloride] | 80.0 ± 5.0 % of control | 103.0 ± 7.0 % of control |  |  | 
CC1CC(C)CN(CC(=O)c2cc(O)c(O)c([N+](=O)[O-])c2)C1.Cl (stereo not shown) [Compound 12, 1-(3,4-Dihydroxy-5-nitro-phenyl)-2-(3,5-dimethyl-piperidin-1-yl)-ethanone hydrochloride] | 32.0 ± 2.0 % of control | 84.0 ± 6.0 % of control |  |  | 
Cl.N#CC1(c2ccccc2)CCN(CCC(=O)c2cc(O)c(O)c([N+](=O)[O-])c2)CC1 [Compound 15, 1-[3-(3,4-Dihydroxy-5-nitro-phenyl)-3-oxo-propyl]-4-phenyl-piperidine-4-carbonitrile hydrochloride] | 93.0 ± 9.0 % of control | 122.0 ± 9.0 % of control |  |  | COMT activity (% of control) (COMT): 2.9 ± 0.3 % of control; Liver COMT (% of control) 1 h (Liver COMT): 51.7 ± 5.9 % of control; Liver COMT (% of control) 6 h (Liver COMT): 37.9 ± 8.4 % of control
Cl.O=C(CCN1CCCCCCC1)c1cc(O)c(O)c([N+](=O)[O-])c1 [Compound 16, 3-Azocan-1-yl-1-(3,4-dihydroxy-5-nitro-phenyl)-propan-1-one hydrochloride] |  |  |  | equally potent in inhibiting liver and brain COMT activity | 
Cl.Cl.O=C(CCN1CCN(c2cccc(C(F)(F)F)c2)CC1)c1cc(O)c(O)c([N+](=O)[O-])c1 [Compound 18, 1-(3,4-Dihydroxy-5-nitro-phenyl)-3-[4-(3-trifluoromethyl-phenyl)-piperazin-1-yl]-propan-1-one dihydrochloride] |  |  | long acting COMT inhibitor with limited activity in the brain | much more potent upon liver COMT than brain COMT | 
